Entries after “also recorded” stand apart in the source; their conditions may differ.
Tested on: healthy adult females
Assay: CNV (contingent negative variation) brain wave measurement of sedative effect
Type: in vivo, human
Conditions: 1 mass % solution in ethanol, inhaled from cotton pad below the nose; three to six healthy adult females; FIG. 1
Source text: Measured was fluctuation in the negative potential of the event-related potential, a type of brain wave, which is also called contingent negative variation (hereinafter, referred to as CNV). The fluctuation intensity of the earlier component of the CNV brain wave is reported to show a positive correlation with the level of consciousness such as attention or expectation, and thus, the CNV brain wave can be used for quantitative evaluation of the effect of a fragrance on the consciousness level (sedated/stimulated) (Torii S. et al., Contingent negative variation (CNV) and the psychological effects of odour. In Perfumery: The Psychology and Biology of Fragrance, Edited by Toller S. V. and Dodd G. H., pp. 107-120, Chapman and Hall, London (1998)).
In the present invention, electrodes were adhered to the […] (Cz) and the left ear (A1) of a subject, and the voltage between the electrodes was measured with an electroencephalograph. The subject was made to listen to a click sound via headphone and push a switch in hand in response to a light-emitting diode flashing few seconds after the click sound, and the CNV brain wave was determined during the operation. In the test with fragrance, a perfume composition was allowed to penetrate into a square cotton pad of approximately 0.5 0.5 cm in size; the cotton pad was placed below the nose; and the subject was allowed to inhale the fragrance together with normal breathing during the series of operations above. […] The CNV brain waves were measured 30 times with and without fragrance respectively, and the fragrance effect was evaluated by comparing the integrated values of the earlier component of the CNV brain wave 400 to 1,000 ms after the click.
o-dimethoxybenzene (o-DMB), m-dimethoxybenzene (m-DMB), and p-dimethoxybenzene (p-DMB) were dissolved respectively in ethanol, to give 1 mass % solutions, and the effect thereof on CNV was measured according to the test method as above. […]

| Compound | sedative effect (effect on CNV) |
| --- | --- |
| COc1cccc(OC)c1 [m-dimethoxybenzene] | favorable effect that leads the subject to sedative direction; also recorded: particularly favorable sedative effect |
| COc1ccccc1OC [o-dimethoxybenzene] | favorable effect that leads the subject to sedative direction; also recorded: particularly favorable sedative effect |
| COc1ccc(OC)cc1 [p-dimethoxybenzene] | favorable effect that leads the subject to sedative direction |

— patent US20090069443A1, “Sedative Effect-Imparting Agent And Sedative Perfume Composition Containing The Same” (Shiseido Co., Ltd., priority 2005, published 2009)
